The nature of series [1]: Oral bioavailability in rats. The series is classed as in vivo.
In series [2] the test system is patients with acute exacerbations of asthma (AEA). In words: Placebo-controlled dose-escalating test of i.v. MN-221 plus standard of care in acute exacerbations of asthma (emergency department). The format is in vivo, human. How it is done:
This example provides certain preferred oral dosages for treating male COPD patients according to this invention. Initially, the efficacy and safety of administering intravenous MN-221 in combination with standard of care (SOC) for treating acute exacerbations of asthma (AEA) in an emergency department (ED) setting is determined. The testing was performed in a randomized, placebo-controlled, dose-escalating, setting. Twenty nine patients received SOC (nebulized albuterol and ipratropium plus oral corticosteroid). Patients with FEV1≦55% of predicted were randomized to MN-221 (240 or 450 μg infused over 15 min or 1080 μg over 2 hr) or Placebo. MN-221 was administered as follows: 16 μg/min for 15 min (total dose of 240 μg); 30 μg/min for 15 min (total dose of 450 μg); 16 μg/min for 15 min+8 μg/min for 105 min (total dose of 1,080 μg); and 2 patients received total dose of 1,995 μg. Safety, efficacy and PK parameters were monitored hourly throughout a 5 hr treatment period and a 24 hr follow-up visit. Nebulized albuterol (2.5 mg) and/or ipratropium (0.5 mg) was available hourly during screening and treatment phases. Efficacy endpoints included spirometry, dyspnea indexing, albuterol use, and hospitalization rates. The testing was completed with 13 patients (n=13) in SOC+Placebo and 16 patients (n=16) receiving SOC+MN-221; 5 at 240 μg, 6 at 450 μg, and 5 intended for a 1080 μg dose. Patients received Standard of Care (SOC) treatment in addition to adjunctive treatment with MN-221 or placebo. MN-221 was well-tolerated.

Series [3] is described as follows: Oral bioavailability in rabbits. The conditions noted are these: rabbit, in vivo, read-out: Oral F %.
A short description of series [4]: Oral bioavailability in dogs. The following applies: dog, in vivo, read-out: Oral F %.

Molecules are shown by their SMILES. Where a name gives a salt, the structure may show the parent alone.

In the case of `CN(C)C(=O)COc1ccc2c(c1)C[C@@H](NC[C@H](O)c1ccc(O)c(CCO)c1)CC2` [MN-221, bedoradrine sulfate], in series [1] (orally administered, female vs male rats), the “gender difference of oral bioavailability” value is “greater bioavailability in female rats compared to male rats”. In addition, the bioavailability was at most 3% in series [1] (rat, in vivo, po, rats, read-out: Oral F %); at most 3% in series [3]; 39% in series [4]. Further, the “heart rate relative to Placebo” value in series [2] (all MN-221 group) is on record as “minimally elevated”. Further, in series [2] (all MN-221 group (4/16), i.v. plus SOC), the hospitalization rate came to 25%. In addition, the “FEV1 (% predicted), change from baseline in AUC1-5 hr, higher vs. Placebo” value in series [2] (all MN-221 group vs. Placebo) is on record as 43%. Moreover, the tolerability result in series [2] (i.v. MN-221 240-1080 μg plus standard of care, AEA patients) is on record as “well-tolerated”. For the same compound, the “electrocardiograph (ECG) findings” value in series [2] (i.v. MN-221 plus SOC) was “No abnormal electrocardiograph (ECG) findings were observed”. The “intensity of the majority of adverse events” value in series [2] (i.v. MN-221 plus SOC) is on record as “mild to moderate in intensity”.

The record behind these values is patent US20120295982A1, “TREATING HUMAN MALE COPD PATIENTS WITH ORAL BEDORADRINE” (MediciNova, Inc., priority 2011, published 2012).
